molecular target: T1, PI3K (p110α/p85α) (Homo sapiens, UniProt P42336); experiment: PI3K Activity Assay (ADP Hunter Plus); assay type: biochemical; conditions: PI3Kα activity, quantitative results; read-out: PI3Kα IC50
T1 construct: purchased Carna Biosciences 07CBS-0402A
Experimental: The kinase activity was measured by using the commercial ADP Hunter™ Plus assay available from DiscoveRx (#33-016), which is a homogeneous assay to measure the accumulation of ADP, a universal product of kinase activity. […] Reaction was carried out for 1 hour at 25° C. Reagent A and B were sequentially added to the wells and plates were incubated for 30 min at 37° C. […] Values were normalized against the control activity included for each enzyme (i.e., 100% PI3 kinase activity, without compound). These values were plot against the inhibitor concentration and were fit to a sigmoid dose-response curve by using the Graphad software.

T1 sequence (P42336 whole entry): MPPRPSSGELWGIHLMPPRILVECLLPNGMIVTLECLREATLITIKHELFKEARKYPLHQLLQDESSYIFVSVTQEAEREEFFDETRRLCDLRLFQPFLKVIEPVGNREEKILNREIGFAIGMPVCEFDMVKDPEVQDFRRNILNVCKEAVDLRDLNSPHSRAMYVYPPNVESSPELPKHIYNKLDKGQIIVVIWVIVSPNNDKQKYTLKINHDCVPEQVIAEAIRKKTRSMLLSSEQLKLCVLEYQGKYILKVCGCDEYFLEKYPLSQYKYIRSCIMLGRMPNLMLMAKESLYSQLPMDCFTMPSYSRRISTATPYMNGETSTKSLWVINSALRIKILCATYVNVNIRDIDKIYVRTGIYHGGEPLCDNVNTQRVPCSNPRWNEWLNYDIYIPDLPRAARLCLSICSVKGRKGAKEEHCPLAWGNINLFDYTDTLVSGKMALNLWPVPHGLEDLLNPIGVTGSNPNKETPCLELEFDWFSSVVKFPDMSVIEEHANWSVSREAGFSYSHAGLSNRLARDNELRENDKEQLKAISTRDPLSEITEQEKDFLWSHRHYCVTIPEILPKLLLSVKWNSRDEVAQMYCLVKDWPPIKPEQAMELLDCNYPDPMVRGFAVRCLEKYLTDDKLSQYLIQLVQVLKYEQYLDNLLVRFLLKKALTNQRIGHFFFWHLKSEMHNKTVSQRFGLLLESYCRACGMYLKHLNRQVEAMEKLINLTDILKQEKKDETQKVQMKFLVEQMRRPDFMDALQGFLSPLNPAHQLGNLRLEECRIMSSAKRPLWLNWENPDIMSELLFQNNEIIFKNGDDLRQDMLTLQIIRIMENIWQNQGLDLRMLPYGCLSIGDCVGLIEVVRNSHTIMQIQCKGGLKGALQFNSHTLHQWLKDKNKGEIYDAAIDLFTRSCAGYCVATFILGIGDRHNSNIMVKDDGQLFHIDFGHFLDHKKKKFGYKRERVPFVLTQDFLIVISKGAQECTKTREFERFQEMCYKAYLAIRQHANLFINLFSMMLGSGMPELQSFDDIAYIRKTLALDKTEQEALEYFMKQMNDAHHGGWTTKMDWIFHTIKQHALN
T1 sequence (P27986 whole entry partner): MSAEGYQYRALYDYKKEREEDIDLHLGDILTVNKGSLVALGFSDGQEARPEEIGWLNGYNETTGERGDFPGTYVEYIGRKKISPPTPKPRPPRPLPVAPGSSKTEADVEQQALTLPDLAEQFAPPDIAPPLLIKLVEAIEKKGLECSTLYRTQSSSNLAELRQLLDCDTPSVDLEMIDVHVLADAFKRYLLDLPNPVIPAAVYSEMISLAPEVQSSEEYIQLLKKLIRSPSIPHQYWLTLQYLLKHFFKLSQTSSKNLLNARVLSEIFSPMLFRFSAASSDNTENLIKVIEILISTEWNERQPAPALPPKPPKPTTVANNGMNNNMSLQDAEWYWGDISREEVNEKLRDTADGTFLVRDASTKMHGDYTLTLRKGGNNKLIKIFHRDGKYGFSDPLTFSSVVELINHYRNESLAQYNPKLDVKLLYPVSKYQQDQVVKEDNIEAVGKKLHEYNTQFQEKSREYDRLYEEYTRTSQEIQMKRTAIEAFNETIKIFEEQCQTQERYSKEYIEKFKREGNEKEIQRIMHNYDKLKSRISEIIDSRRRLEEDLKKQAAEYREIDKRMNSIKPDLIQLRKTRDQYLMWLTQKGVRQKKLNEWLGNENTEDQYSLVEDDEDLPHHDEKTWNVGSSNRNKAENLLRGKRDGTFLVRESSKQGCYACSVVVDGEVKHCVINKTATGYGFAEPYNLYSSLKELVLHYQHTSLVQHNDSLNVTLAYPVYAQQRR

Row | Structure (SMILES) | IC50
1 | CS(=O)(=O)N1CCN(Cc2nc3c(N4CCOCC4)nc(-c4cccc5[nH]ncc45)cn3c2Br)CC1 [2-183] | 0.17 µM
2 | COC(=O)CC1COCCN1c1nc(-c2cnc(N)nc2)cn2cc(C)nc12 (stereo not drawn) [2-224] | 25.4 µM
3 | CS(=O)(=O)N1CCN(Cc2cn3c(Cl)c(-c4ccc(C#N)nc4)nc(N4CCOCC4)c3n2)CC1 [2-206] | 3.7 µM
4 | CNc1ncc(-c2nc(N3CCOCC3)c3nc(CN4CCN(S(C)(=O)=O)CC4)cn3c2Cl)cn1 [2-207] | 0.011 µM
5 | Cc1nc(N)ncc1-c1cn2cc(CN3CCN(S(C)(=O)=O)CC3)nc2c(N2CCOCC2)n1 [2-200] | 0.032 µM
6 | CN(C)CC(=O)N1CCN(Cc2cn3cc(-c4cnc(N)nc4)nc(N4CCOCC4)c3n2)CC1 [2-230] | 0.034 µM

Further lines, results first:

Row | IC50 | Structure (SMILES)
7 | 0.245 µM | CCOC(=O)N1CCC(NC(=O)c2cn3cc(-c4cccc5[nH]ncc45)nc(N4CCOCC4)c3n2)CC1 [2-182]
8 | 0.144 µM | Cc1cnc2c(N3CCOCC3)nc(-c3ccc(NC(=O)Nc4cccc(C(=O)O)c4)cc3)cn12 [2-244]
9 | 3.3 µM | CS(=O)(=O)N1CCN(Cc2cn3cc(-c4ccc(C#N)nc4)nc(N4CCOCC4)c3n2)CC1 [2-201]
10 | 0.114 µM | Nc1ncc(-c2cn3cc(CN4CCC(O)CC4)nc3c(N3CCOCC3)n2)cn1 [2-229]

same assay, conditions: quantitative results of Table 4; read-out: PI3Kα IC50

Row | Structure (SMILES) | IC50
11 | CC(C)(C)OC(=O)N1CCC2(CCN(Cc3cn4cc(-c5cccc6[nH]ncc56)nc(N5CCOCC5)c4n3)C2)CC1 [2-100] | 5.3 µM
12 | CC(C)(C)OC(=O)N1CCC2(CCN(Cc3cn4cc(-c5cccc6[nH]ncc56)nc(N5CCOCC5)c4n3)CC2)CC1 [2-98] | 7.2 µM
13 | c1cc(-c2cn3cc(CN4CCC5(CCNCC5)C4)nc3c(N3CCOCC3)n2)c2cn[nH]c2c1 [2-118] | 1.5 µM
14 | Cc1ccncc1-c1cn2cc(CN3CCN(S(C)(=O)=O)CC3)nc2c(N2CCOCC2)n1 [2-152] | 0.468 µM
15 | CC(C)(C)OC(=O)N1CCC2(CCN(Cc3cn4cc(-c5cccc6[nH]ncc56)nc(N5CCOCC5)c4n3)CC2)C1 [2-97] | 4.5 µM
16 | COc1cc(C)c(-c2cn3cc(CN4CCN(S(C)(=O)=O)CC4)nc3c(N3CCOCC3)n2)cn1 [2-153] | 2.4 µM
17 | CS(=O)(=O)N1CCC2(CCN(Cc3cn4cc(-c5cccc6[nH]ncc56)nc(N5CCOCC5)c4n3)C2)CC1 [2-129] | 2.5 µM
18 | Cc1cn2cc(-c3cccc4[nH]ncc34)nc(-c3ccncc3)c2n1 [2-168] | 26 µM

The remaining lines, values ahead:

Row | IC50 | Structure (SMILES)
19 | 0.944 µM | NC(=O)c1cn2cc(-c3cccc4[nH]ccc34)nc(N3CCOCC3)c2n1 [2-94]
20 | 123 µM | NC(=O)c1cn2cc(-c3c(F)ccc4[nH]cc(Cl)c34)nc(N3CCOCC3)c2n1 [2-105]
21 | 2.6 µM | COC(=O)Cc1cn2cc(-c3cccc4[nH]ncc34)nc(N3CCOCC3)c2n1 [2-107]
22 | 2.3 µM | CC(=O)NCCNC(=O)c1cn2cc(-c3cccnc3)nc(N3CCOCC3)c2n1 [2-158]
23 | 33 µM | CS(=O)(=O)N1CCN(Cc2cn3cc(-c4ccc(N)cc4)nc(N4CCOCC4)c3n2)CC1 [2-89]
24 | 0.776 µM | Cc1ccc(-c2cn3cc(CN4CCN(S(C)(=O)=O)CC4)nc3c(N3CCOCC3)n2)cn1 [2-126]
25 | 0.012 µM | CCOC(=O)c1cn2cc(-c3cnc(N)nc3)nc(N3CCOCC3)c2n1 [2-138]
26 | 3.9 µM | NC(=O)c1cn2cc(-c3ccncc3)nc(N3CCOCC3)c2n1 [2-91]
27 | 0.398 µM | O=C(NCCN1CCOCC1)c1cn2cc(-c3cccnc3)nc(N3CCOCC3)c2n1 [2-159]
28 | 0.891 µM | CN(C)C(=O)c1cn2cc(-c3cccc4[nH]ncc34)nc(N3CCOCC3)c2n1 [2-86]
29 | 34 µM | NC(=O)c1cn2cc(-c3cccc4[nH]cc(Cl)c34)nc(N3CCOCC3)c2n1 [2-103]

same assay, conditions: quantitative results; read-out: PI3Kα IC50

Row | Structure (SMILES) | IC50
30 | CS(=O)(=O)N1CCN(Cc2cn3cc(-c4ccc(C(N)=O)cc4)nc(N4CCOCC4)c3n2)CC1 [2-68] | 11 µM
31 | CS(=O)(=O)N1CCN(Cc2cn3cc(-c4cnc(N)c(C(F)(F)F)c4)nc(N4CCOCC4)c3n2)CC1 [2-83] | 0.21 µM
32 | Cc1nc2c(N3CCOCC3)nc(-c3cccc4[nH]ncc34)cn2c1C1CCNCC1 [2-57, 6-(1H-indazol-4-yl)-2-methyl-8-morpholino-3-(piperidin-4-yl)imidazo[1,2-a]-pyrazine] | 0.144 µM
33 | Cc1cn2c(Cl)c(-c3cccc4[nH]ncc34)nc(N3CCOCC3)c2n1 [2-54, 5-chloro-6-(1H-indazol-4-yl)-2-methyl-8-morpholinoimidazo[1,2-a]pyrazine] | 0.266 µM

Other lines, results leading:

Row | IC50 | Structure (SMILES)
34 | 27 µM | CN1CCN(Cc2cn3cc(-c4cccc(O)c4)nc(N4CCOCC4)c3n2)CC1 [2-07, 3-(2a-((4-methylpiperazin-1-yl)methyl)-8-morpholinoimidazo[1,2-a]pyrazin-6-yl)phenol]
35 | 0.444 µM | Oc1cccc(-c2cn3cc(CN4CCOCC4)nc3c(N3CCOCC3)n2)c1 [2-09, 3-(8-morpholino-2-(morpholinomethyl)imidazo[1,2-a]pyrazin-6-yl)phenol]
36 | 0.235 µM | Cc1cn2cc(-c3cncc(O)c3)nc(N3CCOCC3)c2n1 [2-30, 5-(2-methyl-8-morpholinoimidazo[1,2-a]pyrazin-6-yl)pyridin-3-ol]
37 | 10 µM | Cc1cn2cc(-c3ccncc3)nc(N3CCOCC3)c2n1 [2-31, 2-methyl-8-morpholino-6-(pyridin-4-yl)imidazo[1,2-a]pyrazine]
38 | 19 µM | O=C(O)c1cn2cc(-c3cccc(O)c3)nc(N3CCOCC3)c2n1 [2-02, 6-(3-hydroxyphenyl)-8-morpholinoimidazo[1,2-a]pyrazine-2-carboxylic acid]
39 | 1.8 µM | FC(F)(F)c1cn2cc(-c3cccc4[nH]ncc34)nc(N3CCOCC3)c2n1 [2-20, 2-(trifluoromethyl)-6-(1H-indazol-4-yl)-8-morpholinoimidazo[1,2-a]pyrazine]
40 | 0.476 µM | CC(C)(C)OC(=O)N1CCN(Cc2cn3cc(-c4cccc(O)c4)nc(N4CCOCC4)c3n2)CC1 [2-05, tert-butyl 4-((6-(3-hydroxyphenyl)-8-morpholinoimidazo[1,2-a]pyrazin-2-yl)methyl)-piperazine-1-carboxylate]
41 | 0.253 µM | Cc1cn2c(I)c(-c3cccnc3)nc(N3CCOCC3)c2n1 [2-56, 5-iodo-2-methyl-8-morpholino-6-(pyridin-3-yl)imidazo[1,2-a]pyrazine]
42 | 0.096 µM | Cc1cn2cc(-c3cccc(O)c3)nc(N3CCOCC3)c2n1 [2-23, 3-(2-methyl-8-morpholinoimidazo[1,2-a]pyrazin-6-yl)phenol]

same assay, conditions: semi-quantitative results; read-out: PI3Kα IC50 (semi-quantitative class)

Row | Structure (SMILES) | IC50
43 | CS(=O)(=O)N1CCN(c2cnc3c(N4CCOCC4)nc(-c4cccc5[nH]ncc45)cn23)CC1 [2-41, 6-(1H-indazol-4-yl)-3-(4-sulfonylmethylpiperazin-1-yl)-8-morpholinoimidazo[1,2-a]pyrazine] | 0.1 to 1 µM
44 | Cc1nc2c(N3CCOCC3)nc(-c3cccc4[nH]ncc34)cn2c1C1CCN(C)CC1 [2-58, 6-(1H-indazol-4-yl)-2-methyl-3-(1-methylpiperidin-4-yl)-8-morpholinoimidazo[1,2-a]pyrazine] | 0.1 to 1 µM
45 | Cc1nc2c(N3CCOCC3)nc(-c3cccc4[nH]ncc34)cn2c1C(=O)NC1CCNCC1 [2-64, 6-(1H-indazol-4-yl)-2-methyl-8-morpholino-N-(piperidin-4-yl)imidazo[1,2-a]-pyrazine-3-carboxamide] | > 1 µM
46 | Cc1nc2c(N3CCOCC3)nc(-c3cccc4[nH]ncc34)cn2c1C1CCNCC1 [2-57, 6-(1H-indazol-4-yl)-2-methyl-8-morpholino-3-(piperidin-4-yl)imidazo[1,2-a]-pyrazine] | 0.1 to 1 µM
47 | Cc1cn2c(Cl)c(-c3cccc4[nH]ncc34)nc(N3CCOCC3)c2n1 [2-54, 5-chloro-6-(1H-indazol-4-yl)-2-methyl-8-morpholinoimidazo[1,2-a]pyrazine] | 0.1 to 1 µM

Further lines, results first:

Row | IC50 | Structure (SMILES)
48 | 0.1 to 1 µM | Oc1cccc(-c2cn3cc(CN4CCOCC4)nc3c(N3CCOCC3)n2)c1 [2-09, 3-(8-morpholino-2-(morpholinomethyl)imidazo[1,2-a]pyrazin-6-yl)phenol]
49 | 0.1 to 1 µM | Cc1cn2cc(-c3cncc(O)c3)nc(N3CCOCC3)c2n1 [2-30, 5-(2-methyl-8-morpholinoimidazo[1,2-a]pyrazin-6-yl)pyridin-3-ol]
50 | 0.1 to 1 µM | CN1CCN(c2cnc3c(N4CCOCC4)nc(-c4cccc(O)c4)cn23)CC1 [2-37, 3-(3-(4-methylpiperazin-1-yl)-8-morpholinoimidazo[1,2-a]pyrazin-6-yl)phenol]
51 | < 0.1 µM | Cc1cn2cc(-c3cccc(O)c3)nc(N3CCOCC3)c2n1 [2-23, 3-(2-methyl-8-morpholinoimidazo[1,2-a]pyrazin-6-yl)phenol]

From patent US8778935B2 (Centro Nacional de Investigaciones Oncologicas (CNIO), priority 2009, dated 2014)
